The results in this text go back to patent publication US10350206B2, “Benzyl substituted indazoles as BUB1 inhibitors” (Bayer Pharma Aktiengesellschaft, priority 2014, dated 2019).

The test system of assay [1] is Bub1 kinase (pre-induced phospho-histone 2A). The experiment in a line: H2A Abrogation-Assay (cell-based mechanistic assay, pre-treatment with Nocodazole). The settings on record: read-out: Biological Assay 4.2: H2A Abrogation IC50. Here is the method:
Biological Assay 4.2: Abrogation-Assay
Cell-Based Mechanistic Assay: Changes of Phosphorylation Status of Pre-Induced Phospho-Histone 2A by Inhibition of Kinase Activity of Bub1
This assay measures the inhibition of histone 2A phosphorylation, which was induced by pre-treatment of the cells with Nocodazole, by a Bub1 kinase inhibitor. 25000 cells (cells were ordered from ATCC) were seeded in 96 well plate for 5 h at 37° C. Cells were treated with Nocodazole (1 μg/ml). After 16h varying concentrations (between 3 nM and 10 μM) of test compounds were added and the cells were incubated for another 1h. Cells were fixed (20 min, Fixing solution R&D), washed three times with PBS and blocked with Odyssey blocking buffer before incubating with the primary antibody against phosphorylated H2A (5 μg/ml ABIN482721) overnight at 2-8° C. After washing, secondary IRDye-labeled antibody mix with cell stains was added for 1h and washed again with PBS. Plates were scanned with LiCor Odyssey Infrared Imager CLx at 800 nm for P-H2A and at 700 nm for cell stains Draq5/Sapphire. The quotient of 800 nm and 700 nm for Nocodazole only treated cells was set as 100% and the quotient of 800 nm and 700 nm of untreated cells was set as 0%. […] The IC50 values were determined by means of a 4 parameter fit.
(§1) Histone H2A is an immediate intracellular substrate of Bub1 kinase. Determination of the phosphorylation status of Histone H2A provides a direct measure of the intracellular activity of Bub1 kinase.

Assay [2] deals with HeLa human cervical tumor cells. Nature of the assay: Proliferation Assay (HeLa+Paclitaxel). The format is cell-based. The settings on record: 3 nM paclitaxel, test substance 92 hours; read-out: Biological Assay 3: Proliferation Assay (HeLa + Paclitaxel) IC50. On the procedure: Proliferation Assay (HeLa+Paclitaxel):
(§2) Cultivated HeLa human cervical tumor cells (DSMZ ACC-57) were plated at a density of 3000 cells/well in a 96-well multititer plate in 200 μL of growth medium supplemented 10% fetal calf serum. After 24 hours, the cells of one plate (zero-point plate) were stained with crystal violet (see below). The medium of the other plates was supplemented with 3 nM of paclitaxel (Sigma-Aldrich) and the cells were incubated at 37° C. After 4 hours the test substances were added in various concentrations (0 μM, as well as in the range of 0.001-10 μM; the final concentration of the solvent dimethyl sulfoxide was adjusted to 0.1%) using a Hewlett-Packard HP D300 Digital Dispenser. The cells were incubated for another 92 hours at 37° C. in the presence of test substances. […] After three washing cycles of the fixed cells with water, the plates were dried at room temperature. The cells were stained by adding 100 μL/measuring point of a 0.1% crystal violet solution (pH 3.0). After three washing cycles of the stained cells with water, the plates were dried at room temperature. The dye was dissolved by adding 100 μL/measuring point of a 10% acetic acid solution. […] The change of cell number, in percent, was calculated by normalization of the measured values to the absorption values of the zero-point plate (=0%) and the 5 absorption of the untreated (0 μm) cells (=100%). The IC50 values were determined by means of a 4 parameter fit.

For assay [3], the target named is T1, catalytic domain of human Bub1 (amino acids 704-1085) (Homo sapiens, UniProt O43683).
T1 construct: catalytic domain of human Bub1 (amino acids 704-1085); His6 (N); made in house; host or cells: Hi5 insect cells
The experiment in a line: Bub1 kinase assay (TR-FRET). The class given is biochemical. The settings on record: 10 μM ATP, 60 min reaction, pH 7.5; read-out: Biological Assay 1: Bub1 kinase assay median IC50. On the procedure:
To this end, 100-fold concentrated compound solutions (in DMSO) were previously prepared by serial dilution (1:3.4) of 2 mM stocks in a clear low volume 384-well source microtiter plate (Greiner Bio-One, Frickenhausen, Germany), from which 50 nL of compounds were transferred into a black low volume test microtiter plate from the same supplier. […] The resulting mixture (5 μL final volume) was incubated at 22° during 60 min., and the reaction was stopped by the addition of 5 μL of an aqueous EDTA-solution (50 mM EDTA, in 100 mM HEPES pH 7.5 and 0.2% (w/v) bovine serum albumin) which also contained the TR-FRET detection reagents (0.2 μM streptavidin-XL665 [Cisbio Bioassays, Codolet, France] and 1 nM anti-phosho-Serine antibody [Merck Millipore, cat. #35-001] and 0.4 nM LANCE EU-W1024 labeled anti-mouse IgG antibody [Perkin-Elmer, product no. AD0077, alternatively a Terbium-cryptate-labeled anti-mouse IgG antibody from Cisbio Bioassays can be used]). The stopped reaction mixture was further incubated 1 h at 22° C. in order to allow the formation of complexes between peptides and detection reagents. Subsequently, the amount of product was evaluated by measurement of the resonance energy transfer from the Eu-chelate-antibody complex recognizing the Phosphoserine residue to the streptavidin-XL665 bound to the biotin moiety of the peptide. […] IC50 values were calculated by fitting the normalized inhibition data to a 4-parameter logistic equation (Minimum, Maximum, IC50, Hill; Y=Max+(Min−Max)/(1+(X/IC50)Hill)).

Assay [4] deals with Bub1 kinase (histone 2A phosphorylation). The experiment in a line: H2A Formation-Assay (cell-based mechanistic assay, co-treatment with Nocodazole). The settings on record: 16 h, Nocodazole 1 μg/ml together with test compound for 16 h; read-out: Biological Assay 4.1: H2A Formation IC50. Here is the method: Biological Assay 4.1: Formation-Assay
Cell-Based Mechanistic Assay: Changes of Phosphorylation Status of Histone 2A by Inhibition of Kinase Activity of Bub1
This assay determines the suppression of histone 2A phosphorylation by a Bub1 kinase inhibitor during co-treatment with Nocodazole. 25000 cells (cells were ordered from ATCC) were seeded in 96 well plate for 5 h at 37° C. Cells were treated with Nocodazole (1 μg/ml) and varying concentrations (between 3 nM and 10 μM) of test compounds for 16h. Cells were fixed (20 min, Fixing solution R&D), washed three times with PBS and blocked with Odyssey blocking buffer before incubating with the primary antibody against phosphorylated H2A (5 μg/ml ABIN482721) overnight at […]. After washing, secondary IRDye-labeled antibody mix with cell stains was added for 1h and washed again with PBS. Plates were scanned with LiCor Odyssey Infrared Imager CLx at 800 nm for P-H2A and at 700 nm for cell stains Draq5/Sapphire. The quotient of 800 nm and 700 nm for Nocodazole only treated cells was set as 100% and the quotient of 800 nm and 700 nm of untreated cells was set as 0%. […] The IC50 values were determined by means of a 4 parameter fit.
as §1

Assay [5] has as its system HeLa human cervical tumor cells. Nature of the assay: Proliferation assay (HeLa cell line). The class given is cell-based. The settings on record: 96 h, 4 days incubation, crystal violet, read-out: Biological Assay 2: Proliferation assay (HeLa cell line) median IC50. Here is the method:
as §2, with “Human tumour cells were originally obtained from the American Type Culture Collection (ATCC), the Deutsche Sammlung von Mikroorganismen und Zellkulturen (DSMZ, German Collection of Microorganisms and Cell Cultures), or Epo GmbH Berlin. Cultivated” for “Cultivated”, “below), while the” for “below). The”, “with” for “with 3 nM of paclitaxel (Sigma-Aldrich) and the cells were incubated at 37° C. After 4 hours”, “substances” for “substances were added”, “4 days” for “another 92 hours at 37° C.”, “the” for “the 5”

[6] abbreviates: Nocodazole 1 μg/ml 16 h, then test compound 1 h.

pIC50: −log10 of the molar value. Like-named read-outs stand apart in the source and are kept apart here.

T1 sequence (O43683 704-1085): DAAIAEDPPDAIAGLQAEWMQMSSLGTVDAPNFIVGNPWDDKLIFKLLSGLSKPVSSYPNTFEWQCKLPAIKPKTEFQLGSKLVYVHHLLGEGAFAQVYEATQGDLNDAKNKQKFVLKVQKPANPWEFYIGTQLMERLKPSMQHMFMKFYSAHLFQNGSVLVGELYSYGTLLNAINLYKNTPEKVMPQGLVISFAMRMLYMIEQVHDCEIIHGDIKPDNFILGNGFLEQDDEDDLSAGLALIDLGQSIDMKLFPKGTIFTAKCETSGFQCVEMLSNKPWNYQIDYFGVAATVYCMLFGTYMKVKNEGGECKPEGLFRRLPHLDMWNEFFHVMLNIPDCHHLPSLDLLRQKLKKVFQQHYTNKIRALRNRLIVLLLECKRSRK

For `COc1cnc(-c2nn(Cc3c(F)cc(OCCO)cc3F)c3ccccc23)nc1Nc1ccncc1Cl` [Example 2-1-1, 2-{4-[(3-{4-[(3-chloropyridin-4-yl)amino]-5-methoxypyrimidin-2-yl}-1 H-indazol-1-yl)methyl]-3,5-difluorophenoxy}ethanol], the pIC50 in assay [1] (setting [6]) is 8.00; in assay [2] it was 6.62; in assay [3] it was 7.89; in assay [4], 7.03; in assay [5], 5.39.
For `COc1cnc(-c2nn(Cc3c(F)cc(OCCO)cc3F)c3ccccc23)nc1Nc1ccnc(NC(C)=O)c1` [Example 2-1-4, N-{4-[(2-{1-[2,6-difluoro-4-(2-hydroxyethoxy)benzyl]-1H-indazol-3-yl}-5-methoxypyrimidin-4-yl)amino]pyridin-2-yl}acetamide], in that order: 6.82, 7.00, 8.08, 8.09 and < 5.00.
`COc1cnc(-c2nn(Cc3c(F)cc(OCCO)cc3F)c3ccccc23)nc1Nc1ccnc(C(F)F)c1` [Example 2-1-7, 2-(4-{[3-(4-{[2-(difluoromethyl)pyridin-4-yl]amino}-5-methoxypyrimidin-2-yl)-1H-indazol-1-yl]methyl}-3,5-difluorophenoxy)ethanol]: the pIC50 in assay [2] is 6.32; in assay [3] it was 7.64; in assay [4], 7.57; in assay [5] it was 5.04.
Regarding `COc1cnc(-c2nn(Cc3c(F)cc(OCCO)cc3F)c3ccccc23)nc1Nc1cc(C)ncc1C` [Example 2-1-8, 2-{4-[(3-{4-[(2,5-dimethylpyridin-4-yl)amino]-5-methoxypyrimidin-2-yl}-1H-indazol-1-yl)methyl]-3,5-difluorophenoxy}ethanol], the pIC50 is 6.92 in assay [2], 7.51 in assay [3] and < 5.00 in assay [5].
As to `COc1cnc(-c2nn(Cc3c(F)cc(OCCO)cc3F)c3ccccc23)nc1Nc1ccncc1C1CC1` [Example 2-1-9, 2-{4-[(3-{4-[(3-cyclopropylpyridin-4-yl)amino]-5-methoxypyrimidin-2-yl}-1H-indazol-1-yl)methyl]-3,5-difluorophenoxy}ethanol], in assay [3], the pIC50 was 7.89.
As to `COc1cnc(C)cc1Nc1nc(-c2nn(Cc3c(F)cc(OCCO)cc3F)c3ccccc23)ncc1OC` [Example 2-1-19, 2-{3,5-difluoro-4-[(3-{5-methoxy-4-[(5-methoxy-2-methylpyridin-4-yl)amino]pyrimidin-2-yl}-1H-indazol-1-yl)methyl]phenoxy}ethanol], the pIC50 in assay [2] was 6.85; in assay [3], 7.02; in assay [5], < 5.00.
Turning to `COc1cnccc1Nc1nc(-c2nn(Cc3c(F)cc(OCCCO)cc3F)c3ccccc23)ncc1OC` [Example 2-3-2, 3-{3,5-difluoro-4-[(3-{5-methoxy-4-[(3-methoxypyridin-4-yl)amino]pyrimidin-2-yl}-1H-indazol-1-yl)methyl]phenoxy}propan-1-ol], the pIC50 in assay [1] (setting [6]) is 8.01; in assay [2] it was 7.26; in assay [3], 8.00; in assay [5], 6.00.
Regarding `COc1cnc(-c2nn(Cc3c(F)cc(OCCO)cc3F)c3ccccc23)nc1Nc1cc(C)nc(C)n1` [Example 2-4-1, 2-{4-[(3-{4-[(2,6-dimethylpyrimidin-4-yl)amino]-5-methoxypyrimidin-2-yl}-1H-indazol-1-yl)methyl]-3,5-difluorophenoxy}ethanol], in assay [3], the pIC50 was 7.43.
In the case of `COc1cnc(-c2nn(Cc3c(F)cc(OCCOC(C)=O)cc3F)c3ccccc23)nc1Nc1ccncc1` [Example 6-3-1, 2-[3,5-difluoro-4-({3-[5-methoxy-4-(pyridin-4-ylamino)pyrimidin-2-yl]-1H-indazol-1-yl}methyl)phenoxy]ethyl acetate, reference compound], the pIC50 was 5.44 in assay [1], 6.19 in assay [2] and 5.48 in assay [5].
For `CCOc1cc(F)c(Cn2nc(-c3ncc(OCCOCCNC(=S)Nc4ccc(-c5c6ccc(=O)cc-6oc6cc(O)ccc56)c(C(=O)O)c4)c(Nc4ccncc4)n3)c3ccccc32)c(F)c1` [Example 6-5-1, 5-[({2-[2-({2-[1-(4-ethoxy-2,6-difluorobenzyl)-1H-indazol-3-yl]-4-(pyridin-4-ylamino)pyrimidin-5-yl}oxy)ethoxy]ethyl}carbamothioyl)amino]-2-(6-hydroxy-3-oxo-3H-xanthen-9-yl)benzoic acid, reference compound], in assay [3], the pIC50 was 7.68.
